Data on 62 molecules can be found in ChEMBL document CHEMBL5260833, “An overview of quinazolines: Pharmacological significance and recent developments” (Eur J Med Chem, 2018).

For one test, the system named is Rattus norvegicus. Briefly: Anticonvulsant activity in ip dosed albino rat measured after 1 hrs. The class given is functional.
For `COc1cc(C2CC(Nn3c(C)nc4ccc(Br)cc4c3=O)=NN2C(C)=O)ccc1O` (configuration not stated), the Activity was found to be 50%.
Still for that read-out and setting: the figure for `Cc1nc2ccc(Br)cc2c(=O)n1NC1=NOC(c2ccc(O)cc2)C1` (configuration not stated) is 50%; for `COc1ccc(C2CC(Nn3c(C)nc4ccc(Br)cc4c3=O)=NO2)cc1` (configuration not stated) it is 50%; for `Cc1nc2ccccc2c(=O)n1NC1=NOC(c2ccccc2)C1` (configuration not stated) it is 50%.
On to `COc1ccc(C2CC(Nn3c(C)nc4ccccc4c3=O)=NN2C(C)=O)cc1` (configuration not stated), for which the Activity is on record as 50%.
Still for that read-out and setting: the figure for `COc1ccc(C2CC(Nn3c(C)nc4ccc(Br)cc4c3=O)=NN2C(C)=O)cc1` (configuration not stated) is 50%; for `CC(=O)N1N=C(Nn2c(C)nc3ccccc3c2=O)CC1c1ccc(O)cc1` (configuration not stated) it is 50%; for `COc1ccc(/C=C/C(=O)Nn2c(C)nc3ccccc3c2=O)cc1` it is 50%.
`COc1cc(C2CC(Nn3c(C)nc4ccccc4c3=O)=NN2C(C)=O)ccc1O` (configuration not stated) registered an Activity of 50%.
In turn, `CC(=O)N1N=C(Nn2c(C)nc3ccc(Br)cc3c2=O)CC1c1ccc(O)cc1` (configuration not stated) returned an Activity of 50%.
On to `Cc1nc2ccc(Br)cc2c(=O)n1NC1=NOC(c2ccc(N(C)C)cc2)C1` (configuration not stated), for which the Activity worked out at 50%.
On the same count and under the same terms, then `Cc1nc2ccccc2c(=O)n1NC1=NOC(c2ccc(N(C)C)cc2)C1` (configuration not stated), with 50%; and `CC(=O)N1N=C(Nn2c(C)nc3ccccc3c2=O)CC1c1ccccc1` (configuration not stated), with 50%; and `CC(=O)N1N=C(Nn2c(C)nc3ccccc3c2=O)CC1c1ccc(N(C)C)cc1` (configuration not stated), with 50%.
In the case of `CC(=O)N1N=C(Nn2c(C)nc3ccc(Br)cc3c2=O)CC1c1ccc(N(C)C)cc1` (configuration not stated), the Activity is given as 50%.
Molecule `Cc1nc2ccccc2c(=O)n1NC1=NOC(c2ccc(O)cc2)C1` (configuration not stated) came in with an Activity of 50%.
Same read-out and setting: the figure for `COc1cc(/C=C/C(=O)Nn2c(C)nc3ccccc3c2=O)ccc1O` is 50%.
Still for that read-out and setting: then `Cc1nc2ccccc2c(=O)n1NC(=O)/C=C/c1ccc(O)cc1`, with 50%; and `COc1cc(C2CC(Nn3c(C)nc4ccccc4c3=O)=NO2)ccc1O` (configuration not stated), with 50%.
Molecule `Cc1nc2ccccc2c(=O)n1NC(=O)/C=C/c1ccc(N(C)C)cc1` yielded an Activity of 50%.
Still for that read-out and setting: then `CC(=O)Nn1c(C)nc2ccc(Br)cc2c1=O`, with 50%; and `COc1cc(/C=C/C(=O)Nn2c(C)nc3ccc(Br)cc3c2=O)ccc1O`, with 50%.

In a further test the test system is Rattus norvegicus. Briefly: Antiinflammatory activity in carrageenan induced rat at assessed as reduction in paw edema 50 mg/kg, po relative to control. The class given is functional. More on the design: scale not given: the % may be the effect or the level left.
`CC(C)c1ccc(/C=C/C(=O)NN2C(=O)CC2c2nc3ccc(Br)cc3c(=O)n2-c2ccccc2)cc1` (configuration not stated): the Activity is 10.28%.
On to `COc1ccccc1-n1c(C2CC(=O)N2NC(=O)/C=C/c2ccc(C(C)C)cc2)nc2ccccc2c1=O` (configuration not stated), for which the Activity was found to be 10.28%.
The same measure, in the same setting: then `O=C(/C=C/c1ccccc1)NN1C(=O)CC1c1nc2ccc(Br)cc2c(=O)n1-c1ccccc1` (configuration not stated), with 10.28%.
Still for that read-out and setting: the figure for `COc1ccccc1-n1c(CBr)nc2ccccc2c1=O` is 10.28%; for `COc1ccc(/C=C/C(=O)NN2C(=O)CC2c2nc3ccc(Br)cc3c(=O)n2-c2cccc(Cl)c2)cc1` (configuration not stated) it is 10.28%; for `CC(=O)NNCc1nc2ccc(Br)cc2c(=O)n1-c1ccccc1` it is 10.28%.
Still for that read-out and setting: then `COc1cc(/C=C/C(=O)NNCc2nc3ccccc3c(=O)n2-c2ccccc2OC)ccc1O`, with 10.28%; and `O=c1c2cc(Br)ccc2nc(CBr)n1-c1ccccc1`, with 10.28%; and `COc1ccccc1-n1c(CNNC(=O)/C=C/c2ccc(C(C)C)cc2)nc2ccccc2c1=O`, with 10.28%.
Regarding `O=C(/C=C/c1ccccc1)NN1C(=O)CC1c1nc2ccc(Br)cc2c(=O)n1-c1cccc(Cl)c1` (configuration not stated), the Activity is on record as 10.28%.
Turning to `NNCc1nc2ccccc2c(=O)n1-c1ccccc1Cl`, the Activity came out at 10.28%.
`CC(C)c1ccc(/C=C/C(=O)NN2C(=O)CC2c2nc3ccccc3c(=O)n2-c2ccccc2Cl)cc1` (configuration not stated): the Activity turned out to be 10.28%.
In the case of `COc1cc(/C=C/C(=O)NN2C(=O)CC2c2nc3ccc(Br)cc3c(=O)n2-c2cccc(Cl)c2)ccc1O` (configuration not stated), the Activity turned out to be 10.28%.
As to `O=c1c2ccccc2nc(CBr)n1-c1ccccc1Cl`, the Activity stood at 10.28%.
On the same count and under the same terms, the figure for `NNCc1nc2ccc(Br)cc2c(=O)n1-c1cccc(Cl)c1` is 10.28%.
Turning to `COc1cc(/C=C/C(=O)NN2C(=O)CC2c2nc3ccccc3c(=O)n2-c2ccccc2OC)ccc1O` (configuration not stated), the Activity is on record as 10.28%.
The same measure, in the same setting: the figure for `NNCc1nc2ccc(Br)cc2c(=O)n1-c1ccccc1` is 10.28%; for `CC(C)c1ccc(/C=C/C(=O)NNCc2nc3ccc(Br)cc3c(=O)n2-c2ccccc2)cc1` it is 10.28%; for `COc1cc(/C=C/C(=O)NNCc2nc3ccc(Br)cc3c(=O)n2-c2ccccc2)ccc1O` it is 10.28%.
The same measure, in the same setting: then `COc1cc(/C=C/C(=O)NN2C(=O)CC2c2nc3ccc(Br)cc3c(=O)n2-c2ccccc2)ccc1O` (configuration not stated), with 10.28%; and `COc1ccccc1-n1c(CNN)nc2ccccc2c1=O`, with 10.28%.
On the same count and under the same terms, then `CN(C)c1ccc(/C=C/C(=O)NNCc2nc3ccccc3c(=O)n2-c2ccccc2Cl)cc1`, with 10.28%; and `COc1cc(/C=C/C(=O)NN2C(=O)CC2c2nc3ccccc3c(=O)n2-c2ccccc2Cl)ccc1O` (configuration not stated), with 10.28%.
For `O=C(/C=C/c1ccccc1)NNCc1nc2ccccc2c(=O)n1-c1ccccc1Cl`, the Activity was 10.28%.
The same measure, in the same setting: then `COc1ccc(/C=C/C(=O)NNCc2nc3ccc(Br)cc3c(=O)n2-c2cccc(Cl)c2)cc1`, with 10.28%; and `COc1ccc(/C=C/C(=O)NNCc2nc3ccccc3c(=O)n2-c2ccccc2Cl)cc1`, with 10.28%; and `CC(C)c1ccc(/C=C/C(=O)NN2C(=O)CC2c2nc3ccc(Br)cc3c(=O)n2-c2cccc(Cl)c2)cc1` (configuration not stated), with 10.28%.
Still for that read-out and setting: then `O=c1c2cc(Br)ccc2nc(CBr)n1-c1cccc(Cl)c1`, with 10.28%; and `COc1ccc(/C=C/C(=O)NN2C(=O)CC2c2nc3ccccc3c(=O)n2-c2ccccc2Cl)cc1` (configuration not stated), with 10.28%; and `CC(=O)NNCc1nc2ccccc2c(=O)n1-c1ccccc1Cl`, with 10.28%.
On to `COc1ccc(/C=C/C(=O)NN2C(=O)CC2c2nc3ccc(Br)cc3c(=O)n2-c2ccccc2)cc1` (configuration not stated), for which the Activity was 10.28%.
Consider `O=C(/C=C/c1ccccc1)NNCc1nc2ccc(Br)cc2c(=O)n1-c1cccc(Cl)c1`, for which the Activity is 10.28%.
For the molecule `CC(C)c1ccc(/C=C/C(=O)NNCc2nc3ccc(Br)cc3c(=O)n2-c2cccc(Cl)c2)cc1`, the Activity is on record as 10.28%.
Still for that read-out and setting: then `O=C(/C=C/c1ccccc1)NN1C(=O)CC1c1nc2ccccc2c(=O)n1-c1ccccc1Cl` (configuration not stated), with 10.28%; and `CC(=O)NNCc1nc2ccc(Br)cc2c(=O)n1-c1cccc(Cl)c1`, with 10.28%; and `COc1cc(/C=C/C(=O)NNCc2nc3ccc(Br)cc3c(=O)n2-c2cccc(Cl)c2)ccc1O`, with 10.28%.
Still for that read-out and setting: the figure for `COc1ccc(/C=C/C(=O)NNCc2nc3ccc(Br)cc3c(=O)n2-c2ccccc2)cc1` is 10.28%.
The same measure, in the same setting: the figure for `O=C(/C=C/c1ccccc1)NNCc1nc2ccc(Br)cc2c(=O)n1-c1ccccc1` is 10.28%.
For the molecule `COc1ccccc1-n1c(CNNC(C)=O)nc2ccccc2c1=O`, the Activity amounted to 10.28%.
Turning to `COc1cc(/C=C/C(=O)NNCc2nc3ccccc3c(=O)n2-c2ccccc2Cl)ccc1O`, the Activity amounted to 10.28%.
